These results are taken from article PMC12292521, “Discovery of a Potent Antimicrobial Peptide Through Rational Design: A New Frontier in Pathogen Control” (Biomolecules, 2025).

Assay [1] has as its system Enterococcus faecium. The assay is described as follows: Antimicrobial susceptibility by disk diffusion (EUCAST). It counts as cell-based. Here is the method:
(§1) The antimicrobial susceptibility of the four ESKAPE bacteria Acinetobacter baumannii, Enterococcus faecium, P. aeruginosa, and S. aureus, made available by the culture collection of IZSM, was evaluated by the disk diffusion method. Antimicrobials used were different and specific per each bacterium under study. […] Thereby, the diameter of the inhibition zones was measured, and bacteria were classified as resistant or sensitive per antibiotic tested in agreement with the European Committee for Antimicrobial Susceptibility Testing (EUCAST, 2025) breakpoints.

In assay [2] the test system is Staphylococcus aureus (MRSA). Described as above. It counts as cell-based. Here is the method: as §1

The structures appear in SMILES notation.

For the molecule `O=C(O)c1cn(C2CC2)c2cc(N3CCNCC3)c(F)cc2c1=O` [Ciprofloxacin], the “Susceptibility of the strain, in words” value is “resistant” in assay [1] and “important resistance was detected” in assay [2].
`CN[C@H](CC(C)C)C(=O)N[C@H]1C(=O)N[C@@H](CC(N)=O)C(=O)N[C@H]2C(=O)N[C@H]3C(=O)N[C@H](C(=O)N[C@H](C(=O)O)c4cc(O)cc(O)c4-c4cc3ccc4O)[C@H](O)c3ccc(c(Cl)c3)Oc3cc2cc(c3O[C@@H]2O[C@H](CO)[C@@H](O)[C@H](O)[C@H]2O[C@H]2C[C@](C)(N)[C@H](O)[C@H](C)O2)Oc2ccc(cc2Cl)[C@H]1O` [Vancomycin]: in assay [1], the “Susceptibility of the strain, in words” value is reported as “resistant”.
`CC[C@H]1OC(=O)[C@H](C)[C@@H](O[C@H]2C[C@@](C)(OC)[C@@H](O)[C@H](C)O2)[C@H](C)[C@@H](O[C@@H]2O[C@H](C)C[C@H](N(C)C)[C@H]2O)[C@](C)(O)C[C@@H](C)C(=O)[C@H](C)[C@@H](O)[C@]1(C)O` [Erythromycin]: the “Susceptibility of the strain, in words” value in assay [2] is on record as “important resistance was detected”.
On to `CO[C@@]1(NC(=O)Cc2cccs2)C(=O)N2C(C(=O)O)=C(COC(N)=O)CS[C@@H]21` [Cefoxitin], for which the “Susceptibility of the strain, in words” value in assay [2] was “important resistance was detected”.
Consider `C[C@H]1COc2c(N3CCN(C)CC3)c(F)cc3c(=O)c(C(=O)O)cn1c23` [Levofloxacin], for which the “Susceptibility of the strain, in words” value is “resistant” in assay [1] and “important resistance was detected” in assay [2].
Take `CC1(C)S[C@@H]2[C@H](NC(=O)[C@H](N)c3ccccc3)C(=O)N2[C@H]1C(=O)O` [Ampicillin]: in assay [1], the “Susceptibility of the strain, in words” value is “resistant”.
